A word on the IC50: it is the concentration needed to halve the response being measured.

In the assay the test system is Galpha16-expressing cells, calcium fluorescence, counterscreen. Kind of assay: nonselective Ga16 antagonists, potency, late-stage follow-up, counter-screen for TAAR1 agonist project, cell-based, fluorescence, dose response (AID 743233).

The structures appear in SMILES notation. Calls of active or inactive are those of the source. The rule behind the calls is not given here.

For the compound `CC(=NCCc1ccccc1)C1CCOC1=O` (stereo unspecified), the IC50 is > 29.9 µM (inactive).

Consider `CC1(C)CCCN(C(=O)c2coc(=O)c(Br)c2)C1`, for which the IC50 is > 29.9 µM (inactive). Consider `Nc1nc(Nc2cccc(F)c2)nc2ccccc12`, for which the IC50 was > 29.9 µM (inactive). With `NC(N)=NN=Cc1c(Cl)cccc1Cl` the figure was > 29.9 µM (inactive); with `NCc1c(O)ccc2ccccc12`, > 29.9 µM (inactive). With `NC(N)=Nc1cc2ccccc2c2ccccc12` the figure was > 29.9 µM (inactive); with `Cc1cc(N(C)C)nc(Nc2ccccc2)n1`, > 29.9 µM (inactive); with `O=C(C(=O)N1CCc2ccccc2C1)c1cn(CC(=O)N2CCCCC2)c2ccccc12`, > 29.9 µM (inactive).

On to `O=C(CCN1CCc2ccccc2CC1)c1ccc2c(c1)OCCO2`, for which the IC50 was > 29.9 µM (inactive). The value for `Cc1cc(C)n(C(CC(=O)N2CCc3ccccc3C2)C(=O)O)n1` (stereo unspecified) was > 29.9 µM (inactive).

With `O=c1[nH]cc(NCCc2ccccc2)c(=O)[nH]1`, the IC50 is > 29.9 µM (inactive). The value for `OCCNc1nc(Nc2cccc(O)c2)nc2ccccc12` was > 29.9 µM (inactive); that for `O=C(CCN1CCC(c2ccccc2)C1)c1cccs1` (stereo unspecified) was > 29.9 µM (inactive); that for `COc1cc(C(=O)CCN2CCC(c3ccccc3)C2)cc(OC)c1OC` (stereo unspecified) was > 29.9 µM (inactive). As for `c1ccc(CCN2CN(CCCN3CCOCC3)c3nc4ccccc4n3C2)cc1`, the IC50 was > 29.9 µM (inactive). The value for `Cc1[nH]c2ccccc2c1CN1CCc2ccccc2C1` was > 29.9 µM (inactive); that for `O=C(CCCCl)N1CCc2[nH]c3ccccc3c2C1` was > 29.9 µM (inactive). Consider `OCCNc1nc(Nc2ccc(O)cc2)nc2ccccc12`, for which the IC50 is > 29.9 µM (inactive).

With `O=C(Nc1cccnc1)Nc1cccc(F)c1`, the IC50 is > 29.9 µM (inactive). As for `CC(=C1C(=O)c2ccccc2C1=O)N1CCc2ccccc2C1`, the IC50 is > 29.9 µM (inactive). As for `CCOC(=O)C(NC(C)=O)(N1CCc2ccccc2C1)C(F)(F)F` (stereo unspecified), the IC50 is > 29.9 µM (inactive). With `c1ccc(CCn2nnnc2C(c2cccs2)N2CCN(Cc3ccc4c(c3)OCO4)CC2)cc1` (stereo unspecified) the figure was > 29.9 µM (inactive). As for `O=C(Nc1cccc2ccccc12)N1CCc2ccccc2C1`, the IC50 is > 29.9 µM (inactive). Consider `c1ccc2c3c([nH]c2c1)CCNC3`, for which the IC50 was > 29.9 µM (inactive).

Consider `Nc1nc(Nc2ccccc2)nc2ccccc12`, for which the IC50 is > 29.9 µM (inactive). With `c1ccc2c(c1)CCN(c1nc3cc4c(cc3s1)OCO4)C2` the figure was > 29.9 µM (inactive); with `CCOC(=O)C(NC(=O)CC)(N1CCc2ccccc2C1)C(F)(F)F` (stereo unspecified), > 29.9 µM (inactive); with `O=C(CCN1CCC(c2ccccc2)C1)c1ccc2c(c1)OCCO2` (stereo unspecified), > 29.9 µM (inactive). The value for `O=C(Nc1ccncc1)Nc1ccc(F)cc1` was > 29.9 µM (inactive); that for `O=C(Nc1ccccc1)Nc1ccncc1` was > 29.9 µM (inactive); that for `Cc1ccc(NC(=O)CCN2CCc3ccccc3C2)cc1` was > 29.9 µM (inactive).

These data come from PubChem BioAssay AID743233 (The Scripps Research Institute Molecular Screening Center, 2013).
